Holding throughout (format): cell-based, human
Assay [1] concerns SCC25 (HPV-negative) cancer cells. Description: Soft agar colony formation assay, SCC25. The settings on record: SCC25, HBX 19818 versus DMSO, 14 days. How it is done:
(§1) FIGS. 4A-4D HBX 19818 inhibited transformation of CaSki cells, but not SCC25 cells. The representative images showing the whole-well view and morphology of colonies formed by (FIG. 4A) CaSki (HPV16-positive) and (FIG. 4C) SCC25 (HPV-negative) cancer cells. Cells were seeded into 0.35% agarose gel containing DMEM with 10% FBS, and grew for 14 days. The agarose gel was stained with crystal violet, and images were taken using a digital camera. The colony morphology was observed using an optical microscope at 100× magnification. The bar chart comparing the number of colonies of (FIG. 4B) CaSki or (FIG. 4D) SCC25 cells with DMSO or HBX 19818 at concentrations indicated (n=3). Data indicated are mean±standard error of the mean (SEM). *: P<0.05.
(§2) We performed a soft agar colony formation assay to assess the ability of CaSki and SCC25 to grow in an anchorage-independent manner, in the presence or absence of HBX 19818 treatment. CaSki and SCC25 cells were seeded into 0.7% soft agar containing 2×DMEM and 20% FBS. The cells were incubated at 37° C. for 14 days. After a 2-week incubation, the agarose gel was stained with crystal violet. Colonies formed were counted and measured. We observed that CaSki cells treated with DMSO formed a dramatically higher number of colonies (88.17±5.92) than those treated with 6 μM of HBX 19818 (62.67±2.03) (FIGS. 4A and 4B). […]

Assay [2] shares this test system. Briefly: Wound-healing (migration) assay, SCC25. The conditions noted are these: SCC25, HBX 19818 versus DMSO, 24 hrs. How it is done: The representative images showing the cell migration of (FIG. 5A) CaSki (HPV16-positive) and (FIG. 5C) SCC25 (HPV-negative) cancer cells after scratching. Cells were seeded into 12-well plate and scratched when reached 100% confluence, followed by incubation with DMSO (vehicle control) or HBX 19818 at concentrations indicated for 24 hours. Cell migration was observed and recorded using a time-lapse microscope every 6 hours. The bar chart comparing the relative coverage areas of (FIG. 5B) CaSki and (FIG. 5D) SCC25 with DMSO or HBX 19818 (n=3). Data indicated are mean±SEM. *: P<0.05; **: P<0.01.
We performed a wound-healing assay to ascertain the ability of CaSki and SCC25 cells to migrate under HBX 19818 treatment. Cells were seeded into a 12-well plate and cultured to reach 100% confluency. Cells were then scratched to make artificial wounds on the monolayer of cells and incubated with either DMSO or HBX 19818 at 3 μM or 6 μM. Cells migration was monitored using time-lapse microscopy where images were taken 6-hourly for a duration of 24 hrs.

The subject of assay [3] is CaSki (HPV16-positive) cancer cells. Description: Soft agar colony formation assay, CaSki. The conditions noted are these: 14 days, DMSO 88.17±5.92. The protocol: as §1, §2
Assay [4] concerns CaSki (HPV-positive) cancer cells. Briefly: Matrigel invasion assay, CaSki. The settings on record: 24-hr, DMSO 100%. The protocol:
FIGS. 6A-6D. […] The representative images showing the cell invasion of (FIG. 6A) CaSki (HPV-positive) and (FIG. 6C) SCC25 (HPV-negative) cancer cells in the presence of DMSO (vehicle control) or HBX 19818 at concentrations indicated. Cells were seeded into the invasion chamber with plain medium, followed by treatment with either DMSO or HBX 19818 for 24 hours. Cell invasion was observed and recorded using an optical microscope at 40× magnification. The bar graph comparing the relative cell invasion ability of (FIG. 6B) CaSki and (FIG. 6D) SCC25 with DMSO or HBX 19818 (n=3). Data indicated are mean±standard error of the mean (SEM). **: P<0.01; ***: P<0.001.
We next examined the ability of CaSki and SCC25 cells to invade through Matrigel, which mimics the basement membrane. Approximately 5×10^4 of CaSki and SCC25 cells were seeded into the inserts containing serum-free DMEM medium with either DMSO or HBX 19818. We included MCF7, a non-invasive breast cancer cell line as a negative control. DMEM supplemented with 20% FBS was added into the bottom chamber to attract cells to migrate from the upper to the lower surface of the inserts. After 24-hr incubation at 37° C., the non-invasive cells on the upper surface were removed using cotton swabs. Cells on the lower surface were fixed and stained using hematoxylin. […]

Assay [5] deals with SCC25 (HPV-negative) cancer cells. Briefly: Cell proliferation, cell counting kit-8 (CCK8) assay, SCC25. The conditions noted are these: DMSO 10.45±0.88 folds. The protocol: FIGS. 3A-3B HBX 19818 inhibited proliferation of CaSki cells, but not SCC25 cells. The growth curves showing the cell proliferation of (FIG. 3A) CaSki (HPV16-positive) and (FIG. 3B) SCC25 (HPV-negative) cancer cells in the presence or absence of HBX 19818. Cell proliferation of CaSki was assessed using cell counting kit 8 (CCK8) assay. Cells were seeded into 96-well plates and incubated with either DMSO (vehicle control) or HBX 19818 at 3 μM or 6 μM for different days as indicated. Optical density (OD) value at 450 nm indicating relative proliferation was measured daily (n=3). Error bars indicate standard error of the mean (SEM).
We assessed the ability of CaSki (HPV16 positive cells) and SCC25, which are HPV-null cells, to proliferate using a cell counting kit-8 (CCK8) assay. This assay measures the ability of viable cells to metabolize soluble tetrazolium salt (WST-8) to orange formazan, in which the latter can be measured at optical density (OD) of […]. A day prior to drug treatment, CaSki and SCC25 were seeded into each well of 96-well plates at a density of 2000 cells/well in 100 μL of DMEM containing 10% FBS. The cells were treated with either DMSO (vehicle control) or HBX 19818 at 3 μM and 6 μM for 24, 72, and 96 hrs. […] The OD value of the medium at 450 nm was measured using LEDETECT 96 microplate reader (Labexim Products).

Data on 1 substance can be found in patent publication US20240009182A1, “REPURPOSED COMPOUND AS THERAPEUTIC FOR HPV-ASSOCIATED CANCERS” (The Chinese University of Hong Kong, priority 2022, published 2024).

Regarding HBX 19818, the Number of colonies entry is reported as “no difference in the number of colonies” in assay [1], 74.67±7.99 in assay [3] (3 μM) and 62.67±2.03 in assay [3] (6 μM). Besides, in assay [2], the Cell migration ability entry was “no differences were observed”. The Relative invasive ability in assay [4] (3 μM) is reported as 30%±2.97%; in assay [4] (6 μM), 13.85%±1.21%. In addition, the “Cell proliferation ability (relative OD 450 nm)” value in assay [5] (SCC25, 3 μM) is 10.12±0.94 folds; in assay [5] (SCC25, 6 μM) it was 7.29±1.24 folds.
